# Measured values published in US9006228B2 (Merck Sharp & Dohme Corp., priority 2011, dated 2015).
# pEC50: −log10 of the molar value.
# Target: T1, human GPR119 (Homo sapiens, UniProt Q8TDV5)
# T1 sequence (Q8TDV5 1-308 limits assumed): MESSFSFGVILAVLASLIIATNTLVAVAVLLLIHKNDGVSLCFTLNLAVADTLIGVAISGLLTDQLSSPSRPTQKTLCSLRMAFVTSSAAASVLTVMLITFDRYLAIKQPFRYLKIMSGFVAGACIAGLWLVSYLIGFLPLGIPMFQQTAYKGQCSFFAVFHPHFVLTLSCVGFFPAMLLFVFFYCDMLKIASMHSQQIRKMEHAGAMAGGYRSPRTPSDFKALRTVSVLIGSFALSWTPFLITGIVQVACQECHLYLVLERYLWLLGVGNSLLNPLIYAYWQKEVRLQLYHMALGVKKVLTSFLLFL
# Assay: Measurement of GPR119 signaling (cAMP assay; LANCE kit or HTRF) in HEK293 cells stably transfected with human GPR119
# Type: cell-based
# Conditions: agonist-stimulated cAMP in HEK293 cells expressing human GPR119
# In short: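 LANCE method: cAMP detected with Eu-chelate/biotin-cAMP tracer, 3 h, read at 665 nm, converted via cAMP standards; basal from DMSO, maximum from internal agonist, 4-parameter fit.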
row,Structure (SMILES),pEC50
1,"CCCOC(=O)N1CCC([C@H]2C[C@H]2COCc2ccc(S(C)(=O)=O)cc2)CC1 [Example 8, propyl 4-[(1R,2R)-2-({[4-(methylsulfonyl)benzyl]oxy}methyl)cyclopropyl]piperidine-1-carboxylate]",7.80
2,Cc1cnc(N2CCC([C@H]3C[C@H]3COCc3ccc(S(C)(=O)=O)cc3F)CC2)nc1 [Example 74],8.37
3,"CC(C)(C)OC(=O)N1CCC([C@H]2C[C@H]2COCc2ccc(S(C)(=O)=O)c(F)c2)CC1 [Example 33, tert-butyl 4-[(1R,2R)-2-({[3-fluoro-4-(methylsulfonyl)benzyl]oxy}methyl)cyclopropyl]piperidine-1-carboxylate]",8.96
4,"CCc1cnc(N2CCC([C@H]3C[C@H]3COCc3ccc(-c4cncnc4)cc3F)CC2)nc1 [Example 108, 5-{4-[({(1R,2R)-2-[1-(5-ethylpyrimidin-2-yl)piperidin-4-yl]cyclopropyl}methoxy)methyl]-3-fluorophenyl}pyrimidine]",8.96
5,"CS(=O)(=O)c1ccc(COC[C@@H]2C[C@@H]2C2CCN(c3ncc(F)cn3)CC2)nc1 [Example 5, 5-fluoro-2-{4-[(1R,2R)-2-({[5-(methylsulfonyl)pyridin-2-yl]methoxy}methyl)cyclopropyl]piperidin-1-yl}pyrimidine]",7.68
6,"CCS(=O)(=O)c1ccc(COC[C@@H]2C[C@@H]2C2CCN(c3ncc(COC)cn3)CC2)c(F)c1 [Example 127, 2-(4-((1R,2R)-2-(((4-(ethylsulfonyl)-2-fluorobenzyl)oxy)methyl)cyclopropyl)piperidin-1-yl)-5-(methoxymethyl)pyrimidine]",8.55
7,"COCc1cnc(N2CCC([C@H]3C[C@H]3COCc3ccc(CC(=O)N4CCOCC4)cc3F)CC2)nc1 [Example 146, 2-(3-fluoro-4-((((1R,2R)-2-(1-(5-(methoxymethyl)pyrimidin-2-yl)piperidin-4-yl)cyclopropyl)methoxy)methyl)phenyl)-1-morpholinoethanone]",8.49
8,"CC1(OC(=O)N2CCC([C@H]3C[C@H]3COCc3ccc(S(C)(=O)=O)c(F)c3)CC2)CC1 [Example 43, 1-methylcyclopropyl 4-[(1R,2R)-2-({[3-fluoro-4-(methylsulfonyl)benzyl]oxy}methyl)cyclopropyl] piperidine-1-carboxylate]",8.33
9,CCc1cnc(N2CCC([C@H]3C[C@H]3COCc3cc(F)c(S(C)(=O)=O)c(F)c3)CC2)nc1 [Example 46],9.40
10,"CC(C)c1noc(N2CCC([C@H]3C[C@H]3COCc3ccc(-n4cnnn4)cc3F)CC2)n1 [Example 134, 5-(4-((1R,2R)-2-((2-fluoro-4-(1H-tetrazol-1-yl)benzyloxy)methyl)cyclopropyl)piperidin-1-yl)-3-isopropyl-1,2,4-oxadiazole]",8.77
11,"CCc1cnc(N2CCC([C@H]3C[C@H]3COCc3ccc(S(=O)(=O)C4CC4)cc3)CC2)nc1 [Example 56, 2-{4-[(1R,2R)-2-({[4-(cyclopropylsulfonyl)benzyl]oxy}methyl)cyclopropyl]piperidin-1-yl}-5-ethylpyrimidine]",8.92
12,"CC(C)c1noc(N2CCC([C@H]3C[C@H]3COCc3ccc(CC(=O)N(C)C)cc3F)CC2)n1 [Example 137, 2-(3-fluoro-4-((((1R,2R)-2-(1-(3-isopropyl-1,2,4-oxadiazol-5-yl)piperidin-4-yl)cyclopropyl)methoxy)methyl)phenyl)-N,N-dimethylacetamide]",8.80
13,"CCc1cnc(N2CCC([C@H]3C[C@H]3COCc3ccc(-c4cnc(OC)nc4)cc3F)CC2)nc1 [Example 104, 5-{4-[({(1R,2R)-2-[1-(5-ethylpyrimidin-2-yl)piperidin-4-yl]cyclopropyl}methoxy)methyl]-3-fluorophenyl}-2-methoxypyrimidine]",8.06
14,"CS(=O)(=O)c1ccc(COC[C@@H]2C[C@@H]2C2CCN(c3ncc(C=O)cn3)CC2)c(F)c1 [Example 71, 2-{4-[(1R,2R)-2-({[2-fluoro-4-(methylsulfonyl)benzyl]oxy}methyl)cyclopropyl]piperidin-1-yl} pyrimidine-5-carbaldehyde]",7.87
15,"CCc1cnc(N2CCC([C@H]3C[C@H]3COCc3ccc(-c4cncnc4)c(F)c3)CC2)nc1 [Example 113, 5-{4-[({(1R,2R)-2-[1-(5-ethylpyrimidin-2-yl)piperidin-4-yl]cyclopropyl}methoxy)methyl]-2-fluorophenyl}pyrimidine]",8.70
16,"O=S(=O)(CCO)c1ccc(COC[C@@H]2C[C@@H]2C2CCN(c3ncc(Br)cn3)CC2)nc1 [Example 87, 2-({6-[({(1R,2R)-2-[1-(5-bromopyrimidin-2-yl)piperidin-4-yl]cyclopropyl}methoxy)methyl]pyridin-3-yl}sulfonyl)ethanol]",7.97
17,"CCc1noc(N2CCC([C@H]3C[C@H]3COCc3ccc(S(C)(=O)=O)cc3)CC2)n1 [Example 30, 1-(3-ethyl-1,2,4-oxadiazol-5-yl)-4-[(1R,2R)-2-({[4-(methylsulfonyl)benzyl]oxy}methyl)cyclopropyl]piperidine]",8.55
18,CC(C)(O)CSc1ccc(COC[C@@H]2C[C@@H]2C2CCN(C(=O)OC(C)(C)C)CC2)cc1 [Example 92],7.69
19,CS(=O)(=O)c1ccc(COC[C@@H]2C[C@@H]2C2CCN(c3ncc(Cl)cn3)CC2)c(F)c1 [Example 68],9.74
20,"CS(=O)(=O)c1c(F)cc(COC[C@@H]2C[C@@H]2C2CCN(c3ncc(F)cn3)CC2)cc1F [Example 47, 2-{4-[(1R,2R)-2-({[3,5-difluoro-4-(methylsulfonyl)benzyl]oxy}methyl)cyclopropyl]piperidin-1-yl}-5-fluoropyrimidine]",8.49
21,"CC(C)c1noc(N2CCC([C@H]3C[C@H]3COCc3ccc(S(C)(=O)=O)cc3F)CC2)n1 [Example 78, 4-[(1R,2R)-2-({[2-fluoro-4-(methylsulfonyl)benzyl]oxy}methyl)cyclopropyl 1]-1-(3-isopropyl-1,2,4-oxadiazol-5-yl)piperidine]",8.31

# Continued by rising pEC50, values first:
row,pEC50,Structure (SMILES)
1,6.07,CCc1cnc(N2CCC([C@H]3C[C@H]3[C@H](COC)OCc3ccc(S(C)(=O)=O)cc3)CC2)nc1 [Example 65]
2,7.60,"CC(C)(O)c1cnc(N2CCC([C@H]3C[C@H]3COCc3ccc(S(C)(=O)=O)cc3F)CC2)nc1 [Example 75, 2-(2-{4-[(1R,2R)-2-({[2-fluoro-4-(methylsulfonyl)benzyl]oxy}methyl)cyclopropyl]piperidin-1-yl}pyrimidin-5-yl)propan-2-ol]"
3,7.69,"CC(C)OC(=O)N1CCC([C@H]2C[C@H]2COCc2cc(F)c(S(C)(=O)=O)c(F)c2)CC1 [Example 50, isopropyl 4-[(1R,2R)-2-({[3,5-difluoro-4-(methylsulfonyl)benzyl]oxy}methyl)cyclopropyl] piperidine-1-carboxylate]"
4,8.00,"CCCc1cnc(N2CCC([C@H]3C[C@H]3COCc3ccc(S(=O)(=O)CCO)cn3)CC2)nc1 [Example 89, 2-({6-[({(1R,2R)-2-[1-(5-propylpyrimidin-2-yl)piperidin-4-yl]cyclopropyl}methoxy)methyl]pyridin-3-yl}sulfonyl)ethanol]"
5,8.29,"COCc1cnc(N2CCC([C@H]3C[C@H]3COCc3ccc(CC(=O)N4CCC4)cc3F)CC2)nc1 [Example 145, 1-(azetidin-1-yl)-2-(3-fluoro-4-((((1R,2R)-2-(1-(5-(methoxymethyl)pyrimidin-2-yl)piperidin-4-yl)cyclopropyl)methoxy)methyl)phenyl)ethanone]"
6,8.42,"O=S(=O)(CCO)c1ccc(COC[C@@H]2C[C@@H]2C2CCN(c3ncc(-c4ccoc4)cn3)CC2)c(F)c1 [Example 85, 2-[(3-fluoro-4-{[((1R,2R)-2-{1-[5-(3-furyl)pyrimidin-2-yl]piperidin-4-yl}cyclopropyl)methoxy]methyl}phenyl)sulfonyl]ethanol]"
7,8.60,"COCc1cnc(N2CCC([C@H]3C[C@H]3COCc3ccc(CC(=O)N(C)C)cc3F)CC2)nc1 [Example 147, 2-(3-fluoro-4-((((1R,2R)-2-(1-(5-(methoxymethyl)pyrimidin-2-yl)piperidin-4-yl)cyclopropyl)methoxy)methyl)phenyl)-N,N-dimethylacetamide]"
8,8.64,"CCS(=O)(=O)c1ccc(COC[C@@H]2C[C@@H]2C2CCN(c3nc(C4CC4)no3)CC2)cc1 [Example 29, 1-(3-cyclopropyl-1,2,4-oxadiazol-5-yl)-4-[(1R,2R)-2-({[4-(ethylsulfonyl)benzyl]oxy}methyl)cyclopropyl]piperidine]"
9,9.52,"CCCc1cnc(N2CCC([C@H]3C[C@H]3COCc3ccc(S(C)(=O)=O)cc3)CC2)nc1 [Example 22, 2-{4-[(1R,2R)-2-({[4-(methylsulfonyl)benzyl]oxy}methyl)cyclopropyl]piperidin-1-yl}-5-propylpyrimidine]"
10,9.52,"CCc1cnc(N2CCC([C@H]3C[C@H]3COCc3ccc(-n4ccnn4)cc3)CC2)nc1 [Example 62, 5-ethyl-2-{4-[(1R,2R)-2-({[4-(1H-1,2,3-triazol-1-yl)benzyl]oxy}methyl)cyclopropyl]piperidin-1-yl}pyrimidine]"
11,10.15,"CCc1cnc(N2CCC([C@H]3C[C@H]3COCc3ccc(-n4cnnn4)cc3)CC2)nc1 [Example 61, 5-ethyl-2-{4-[(1R,2R)-2-({[4-(1H-tetrazol-1-yl)benzyl]oxy}methyl)cyclopropyl]piperidin-1-yl}pyrimidine]"
